Results taken from patent US20020137929A1, “1 - (3-heterocyclylphenyl) isothiourea, -isourea, -guanidine and -amidine herbicidal agents” (Intellectual Property Department, BASF Aktiengesellschaft, priority 1998, published 2002).

Legend:
ORYSAT (Rice, Tebonnet) [1] = experiment: Preemergence herbicidal evaluation; format: in vivo, Oryza sativa, (L.) Tebonnet; details: rated 4-5 weeks after treatment
How it was run: (§1)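 Sown cups got a single aqueous acetone spray of test compound (roughly 0.0156–0.500 kg/ha) before seedlings emerged. Evaluation, 4–5 weeks on, used a 0–9 visual scale covering plant stand, vigor, size, malformation, chlorosis and general appearance compared with controls.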

SETVI (Foxtail, Green) = experiment: Preemergence herbicidal evaluation; format: in vivo, Setaria viridis; details: rated 4-5 weeks after treatment
How it was run: as §1

CYPIR (Rice Flatsedge) = experiment: Preemergence weed control under flooded paddy conditions; format: in vivo, Cyperus iria; details: rated 3-4 weeks after treatment
How it was run: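 Ratings on a 0-9 visual scale cover stand, vigor, malformation, size, chlorosis and overall appearance relative to a control, taken three to four weeks post-treatment. Application was into flood water over freshly sown silt loam at roughly 0.0313 to 0.500 kg/ha.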

ECHCG (Barnyardgrass) = experiment: Postemergence herbicidal evaluation; format: in vivo, Echinochloa crus-galli; details: postemergence
How it was run: (§2)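 First, seedlings were raised for around two weeks. Next, test material in 50/50 acetone/water containing 0.5% TWEEN 20 was sprayed through a nozzle at 40 psi, equivalent to about 0.0156–0.500 kg/ha. Finally, after 4–5 weeks in the greenhouse, plants were rated 0–9.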

GALAP (Galium) = experiment: Preemergence herbicidal evaluation; format: in vivo, Galium aparine; details: rated 4-5 weeks after treatment
How it was run: as §1

MOOVA (Monochoria) = experiment: Preemergence weed control under flooded paddy conditions; format: in vivo, Monochoria vaginalis; details: rated 3-4 weeks after treatment
How it was run: (§3)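 Seeds or propagules sown in silt loam kept flooded 1.5-3 cm; compounds in 50/50 acetone/water pipetted into flood water at about 0.0313 to 0.500 kg/ha. Greenhouse; visual 0-9 rating versus untreated control 3-4 weeks after treatment.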

[2] = tested on: TRZAWR (Wheat, Winter, cv Riband); experiment: Preemergence herbicidal evaluation; format: in vivo, Triticum aestivum; details: rated 4-5 weeks after treatment
How it was run: as §1

[3] = tested on: CHEAL (Lambsquarters, Common); experiment: Postemergence herbicidal evaluation; format: in vivo, Chenopodium album; details: postemergence
How it was run: as §2

ZEAMX (Corn, Field) = experiment: Preemergence herbicidal evaluation; format: in vivo, Zea mays; details: rated 4-5 weeks after treatment
How it was run: as §1

[4] = tested on: GLXMAW (Soybean, Williams); experiment: Preemergence herbicidal evaluation; format: in vivo, Glycine max, (L.) Merr. cv Williams; details: rated 4-5 weeks after treatment
How it was run: as §1

CASOB (Sicklepod) = experiment: Postemergence herbicidal evaluation; format: in vivo, Cassia obtusifolia; details: postemergence
How it was run: as §2

[5] = tested on: SAGPY (Arrowhead (Pygmaea)); experiment: Preemergence weed control under flooded paddy conditions; format: in vivo, Sagittaria pygmaea; details: rated 3-4 weeks after treatment
How it was run: as §3

ORYSAT (Rice, Tebonnet) [6] = experiment: Postemergence herbicidal evaluation; format: in vivo, Oryza sativa, (L.) Tebonnet; details: postemergence
How it was run: as §2

CCOC(=O)CN1C(=O)C(C(=O)OC(C)(C)C)SC1=Nc1cc(-n2c(=O)cc(C(F)(F)F)n(C)c2=O)c(F)cc1Cl (stereo not shown) [Compound 167, 5-Carboxy-2-{{2-chloro-5-[3,6-dihydro-3-methyl-2,6-dioxo-4-(trifluoromethyl)-1(2H)-pyrimidinyl]-4-fluorophenyl}imino}-4-oxo-3-thiazolidineacetic acid, 5-tert-butyl ethyl ester]
Preemergence herbicidal rating ORYSAT (ORYSAT (Rice, Tebonnet) [1]; 0.0156 kg/ha): 0.0 | Preemergence herbicidal rating ORYSAT (ORYSAT (Rice, Tebonnet) [1]; 0.0313 kg/ha): 0.0 | Preemergence herbicidal rating ORYSAT (ORYSAT (Rice, Tebonnet) [1]; 0.0625 kg/ha): 1.0 | Preemergence herbicidal rating ORYSAT (ORYSAT (Rice, Tebonnet) [1]; 0.1250 kg/ha): 4.0 | Preemergence herbicidal rating ORYSAT (ORYSAT (Rice, Tebonnet) [1]; 0.2500 kg/ha): 5.0 | Preemergence herbicidal rating ORYSAT (ORYSAT (Rice, Tebonnet) [1]; 0.5000 kg/ha): 6.0 | Preemergence herbicidal rating SETVI (SETVI (Foxtail, Green); 0.0156 kg/ha): 5.0 | Preemergence herbicidal rating SETVI (SETVI (Foxtail, Green); 0.0313 kg/ha): 7.0 | Preemergence herbicidal rating SETVI (SETVI (Foxtail, Green); 0.0625 kg/ha): 9.0 | Preemergence herbicidal rating SETVI (SETVI (Foxtail, Green); 0.1250 kg/ha): 9.0 | Preemergence herbicidal rating SETVI (SETVI (Foxtail, Green); 0.2500 kg/ha): 9.0 | Preemergence herbicidal rating SETVI (SETVI (Foxtail, Green); 0.5000 kg/ha): 9.0 | herbicidal effect rating, CYPIR (CYPIR (Rice Flatsedge); 0.0313 kg/ha): 7.0 | herbicidal effect rating, CYPIR (CYPIR (Rice Flatsedge); 0.0625 kg/ha): 9.0 | herbicidal effect rating, CYPIR (CYPIR (Rice Flatsedge); 0.1250 kg/ha): 9.0 | herbicidal effect rating, CYPIR (CYPIR (Rice Flatsedge); 0.2500 kg/ha): 9.0 | Herbicidal rating ECHCG (ECHCG (Barnyardgrass); rate 0.0156 kg/ha): 3.0 | Herbicidal rating ECHCG (ECHCG (Barnyardgrass); rate 0.0313 kg/ha): 3.0 | Herbicidal rating ECHCG (ECHCG (Barnyardgrass); rate 0.0625 kg/ha): 3.0 | Herbicidal rating ECHCG (ECHCG (Barnyardgrass); rate 0.1250 kg/ha): 3.0 | Preemergence herbicidal rating GALAP (GALAP (Galium); 0.0156 kg/ha): 1.0 | Preemergence herbicidal rating GALAP (GALAP (Galium); 0.0313 kg/ha): 5.0 | Preemergence herbicidal rating GALAP (GALAP (Galium); 0.0625 kg/ha): 7.0 | Preemergence herbicidal rating GALAP (GALAP (Galium); 0.1250 kg/ha): 9.0 | Preemergence herbicidal rating GALAP (GALAP (Galium); 0.2500 kg/ha): 6.0 | Preemergence herbicidal rating GALAP (GALAP (Galium); 0.5000 kg/ha): 7.0 | herbicidal effect rating, MOOVA (MOOVA (Monochoria); 0.0313 kg/ha): 9.0 | herbicidal effect rating, MOOVA (MOOVA (Monochoria); 0.0625 kg/ha): 9.0 | herbicidal effect rating, MOOVA (MOOVA (Monochoria); 0.1250 kg/ha): 9.0 | herbicidal effect rating, MOOVA (MOOVA (Monochoria); 0.2500 kg/ha): 9.0 | Preemergence herbicidal rating TRZAWR ([2]; 0.0156 kg/ha): 0.0 | Preemergence herbicidal rating TRZAWR ([2]; 0.0313 kg/ha): 0.0 | Preemergence herbicidal rating TRZAWR ([2]; 0.0625 kg/ha): 1.0 | Preemergence herbicidal rating TRZAWR ([2]; 0.1250 kg/ha): 3.0 | Preemergence herbicidal rating TRZAWR ([2]; 0.2500 kg/ha): 4.0 | Preemergence herbicidal rating TRZAWR ([2]; 0.5000 kg/ha): 5.0 | Herbicidal rating CHEAL ([3]; rate 0.0156 kg/ha): 4.0 | Herbicidal rating CHEAL ([3]; rate 0.0313 kg/ha): 7.0 | Herbicidal rating CHEAL ([3]; rate 0.0625 kg/ha): 9.0 | Herbicidal rating CHEAL ([3]; rate 0.1250 kg/ha): 9.0 | Preemergence herbicidal rating ZEAMX (ZEAMX (Corn, Field); 0.0156 kg/ha): 0.0 | Preemergence herbicidal rating ZEAMX (ZEAMX (Corn, Field); 0.0313 kg/ha): 0.0 | Preemergence herbicidal rating ZEAMX (ZEAMX (Corn, Field); 0.0625 kg/ha): 3.0 | Preemergence herbicidal rating ZEAMX (ZEAMX (Corn, Field); 0.1250 kg/ha): 3.0 | Preemergence herbicidal rating ZEAMX (ZEAMX (Corn, Field); 0.2500 kg/ha): 6.0 | Preemergence herbicidal rating ZEAMX (ZEAMX (Corn, Field); 0.5000 kg/ha): 7.0 | Preemergence herbicidal rating GLXMAW ([4]; 0.0156 kg/ha): 1.0 | Preemergence herbicidal rating GLXMAW ([4]; 0.0313 kg/ha): 0.0 | Preemergence herbicidal rating GLXMAW ([4]; 0.0625 kg/ha): 0.0 | Preemergence herbicidal rating GLXMAW ([4]; 0.1250 kg/ha): 4.0 | Preemergence herbicidal rating GLXMAW ([4]; 0.2500 kg/ha): 4.0 | Preemergence herbicidal rating GLXMAW ([4]; 0.5000 kg/ha): 7.0 | Herbicidal rating CASOB (CASOB (Sicklepod); rate 0.0156 kg/ha): 1.0 | Herbicidal rating CASOB (CASOB (Sicklepod); rate 0.0313 kg/ha): 2.0 | Herbicidal rating CASOB (CASOB (Sicklepod); rate 0.0625 kg/ha): 1.0 | Herbicidal rating CASOB (CASOB (Sicklepod); rate 0.1250 kg/ha): 4.0 | herbicidal effect rating, SAGPY ([5]; 0.0313 kg/ha): 4.0 | herbicidal effect rating, SAGPY ([5]; 0.0625 kg/ha): 5.0 | herbicidal effect rating, SAGPY ([5]; 0.1250 kg/ha): 6.0 | herbicidal effect rating, SAGPY ([5]; 0.2500 kg/ha): 7.0 | Herbicidal rating ORYSAT (ORYSAT (Rice, Tebonnet) [6]; rate 0.0156 kg/ha): 3.0 | Herbicidal rating ORYSAT (ORYSAT (Rice, Tebonnet) [6]; rate 0.0313 kg/ha): 3.5 | Herbicidal rating ORYSAT (ORYSAT (Rice, Tebonnet) [6]; rate 0.0625 kg/ha): 3.5 | Herbicidal rating ORYSAT (ORYSAT (Rice, Tebonnet) [6]; rate 0.1250 kg/ha): 4.0
